Values quoted from earlier work in patent publication US11590237B2, “Pharmaceutical formulation comprising incretin-insulin conjugates” (Merck Sharp & Dohme Corp., priority 2017, dated 2023).

Settings: literature data [21]

## CCCCCCCCCCCCCCCC(=O)N[C@@H](CCC(=O)NCCCC[C@H](NC(=O)[C@H](C)NC(=O)[C@H](C)NC(=O)[C@H](CCC(N)=O)NC(=O)CNC(=O)[C@H](CCC(=O)O)NC(=O)[C@H](CC(C)C)NC(=O)[C@H](Cc1ccc(O)cc1)NC(=O)[C@H](CO)NC(=O)[C@H](CO)NC(=O)[C@@H](NC(=O)[C@H](CC(=O)O)NC(=O)[C@H](CO)NC(=O)[C@@H](NC(=O)[C@H](Cc1ccccc1)NC(=O)[C@@H](NC(=O)CNC(=O)[C@H](CCC(=O)O)NC(=O)[C@H](C)NC(=O)[C@@H](N)Cc1cnc[nH]1)[C@@H](C)O)[C@@H](C)O)C(C)C)C(=O)N[C@@H](CCC(=O)O)C(=O)N[C@@H](Cc1ccccc1)C(=O)N[C@H](C(=O)N[C@@H](C)C(=O)N[C@@H](Cc1c[nH]c2ccccc12)C(=O)N[C@@H](CC(C)C)C(=O)N[C@H](C(=O)N[C@@H](CCCNC(=N)N)C(=O)NCC(=O)N[C@@H](CCCNC(=N)N)C(=O)NCC(=O)O)C(C)C)[C@@H](C)CC)C(=O)O [liraglutide]
  Number of monomers in oligomers: 6-12 monomers
